The results in this text go back to patent US7989467B2, “Use of indole-derived compounds for the preparation of a medicament that can be used to treat diseases related to the splicing process” (Centre National de la Recherche Scientifique (CNRS), priority 2003, dated 2011).

Structures are written as SMILES.

The target in the first test is T1, SRp55 (Homo sapiens, UniProt Q13247).
T1 sequence (Q13247 1-344): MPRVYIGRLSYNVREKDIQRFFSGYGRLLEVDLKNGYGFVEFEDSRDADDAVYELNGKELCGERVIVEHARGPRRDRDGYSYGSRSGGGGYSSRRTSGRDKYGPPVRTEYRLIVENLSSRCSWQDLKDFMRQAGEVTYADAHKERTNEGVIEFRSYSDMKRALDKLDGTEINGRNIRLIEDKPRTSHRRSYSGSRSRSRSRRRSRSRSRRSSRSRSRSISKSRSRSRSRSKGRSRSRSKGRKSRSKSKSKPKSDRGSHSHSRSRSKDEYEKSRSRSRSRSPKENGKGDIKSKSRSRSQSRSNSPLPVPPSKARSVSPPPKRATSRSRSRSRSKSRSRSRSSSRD
Kind of test: In vitro splicing results, Table 3: SRp55. The settings on record: summary of Table 3. Type of test: biochemical.
Take `Cc1c2ccnc(NCCC(C)C)c2c(C)c2c1[nH]c1ccc(O)cc12` [C19, 5,11-dimethyl-1-(3-methyl-butylamino)-6H-pyrido[4,3-b]carbazol-9-ol]: the “inhibit the activity of the SRp55 protein specifically” value (from here on “inhibit the activity”) is on record as “inhibit the activity of the SRp55 protein specifically”.

As to `COc1ccc2[nH]c3c(C)c4ccnc(NCCN5CCCC5)c4cc3c2c1` [C42, (9-methoxy-5-methyl-6H-pyrido[4,3-b]carbazol-1-yl)-(2-pyrrolidin-1-yl-ethyl)-amine], the “inhibit the activity” value was “inhibit the activity of the SRp55 protein specifically”.

As for `Cc1cnc(NCCCN(C)C)c2c1[nH]c1c3cccc(O)c3ccc12` [C76, 7-(3-dimethylamino-propylamino)-10-methyl-11H-benzo[g]pyrido[4,3-b]indol-4-ol], the “inhibit the activity” value is “inhibit the activity of the SRp55 protein specifically”.

Take `COc1ccc2ccc3[nH]c4c(C)cnc(NCCCN(C)C)c4c3c2c1` [C77, N′-(2-methoxy-8-methyl-7H-benzo[e]pyrido[4,3-b]indol-11-yl)-N,N-dimethyl-propane-1,3-diamine]: the “inhibit the activity” value is listed as “inhibit the activity of the SRp55 protein specifically”.

Consider `CCN(CC)CCCNc1ncc(C)c2c1c1ccc3ccccc3c1n2C` [C78, N′-(10,11-dimethyl-11H-benzo[g]pyrido[4,3-b]indol-7-yl)-N,N-diethyl-propane-1,3-diamine], for which the “inhibit the activity” value is “inhibit the activity of the SRp55 protein specifically”.

For `Cc1cnc(NCCCN(C)C)c2c3c4ccccc4ccc3n(C)c12` [C79, N′-(7,8-dimethyl-7H-benzo[e]pyrido[4,3-b]indol-11-yl)-N,N-dimethyl-propane-1,3-diamine], the “inhibit the activity” value was “inhibit the activity of the SRp55 protein specifically”.

As for `Cc1cnc(NCCCN(C)C)c2c1[nH]c1c3ccccc3ccc12` [C80, N,N-dimethyl-N′-(10-methyl-11H-benzo[g]pyrido[4,3-b]indoi-7-yl)-propane-1,3-diamine], the “inhibit the activity” value is listed as “inhibit the activity of the SRp55 protein specifically”.

As for `CCN(CC)CCCNc1ncc(C)c2[nH]c3c4ccccc4ccc3c12` [C82, N,N-diethyl-N′-(10-methyl-11H-benzo[g]pyrido[4,3-b]indol-7-yl)-propane-1,3-diamine], the “inhibit the activity” value is listed as “inhibit the activity of the SRp55 protein specifically”.

As for `COc1cccc2c1ccc1c3c(NCCCN(C)C)ncc(C)c3n(C)c21` [C85, N′-(4-methoxy-10,11-dimethyl-11H-benzo[g]pyrido[4,3-b]indol-7-yl)-N,N-dimethyl-propane-1,3-diamine], the “inhibit the activity” value was “inhibit the activity of the SRp55 protein specifically”.

On to `Cc1cnc(NCCCN(C)C)c2c1[nH]c1ccc3ccccc3c12` [C87, N,N-dimethyl-N′-(8-methyl-7H-benzo[e]pyrido[4,3-b]indol-11-yl)-propane-1,3-diamine], for which the “inhibit the activity” value is “inhibit the activity of the SRp55 protein specifically”.

As to `Cc1cnc(NCC(C)CN(C)C)c2c1[nH]c1ccc3cc(O)ccc3c12` (stereo not shown) [C88, 11-(3-dimethylamino-2-methyl-propylamino)-8-methyl-7H-benzo[e]pyrido[4,3-b]indol-3-ol], the “inhibit the activity” value is “inhibit the activity of the SRp55 protein specifically”.

As for `COc1cccc2c1ccc1[nH]c3c(C)cnc(NCCCN(C)C)c3c12` [C93, N′-(4-methoxy-8-methyl-7H-benzo[e]pyrido[4,3-b]indol-11-yl)-N,N-dimethyl-propane-1,3-diamine], the “inhibit the activity” value is given as “inhibit the activity of the SRp55 protein specifically”.

Take `COc1ccc2c(ccc3[nH]c4c(C)cnc(NCCCCCCN)c4c32)c1` [C95, N-(3-methoxy-8-methyl-7H-benzo[e]pyrido[4,3-b]indol-11-yl)-hexane-1,6-diamine]: the “inhibit the activity” value is “inhibit the activity of the SRp55 protein specifically”.

For another test, the system named is HIV. Nature of the test: Inhibition of HIV multiplication in PMA-stimulated U1 cells (RT-PCR of viral transcripts). The format is cell-based. The settings on record: 2.5 μM; 24 h; U1 cells treated with 50 nM PMA; FIG. 6. From the text: To this end, human […] cell line U1, which is chronically infected by HIV (Folks et al., 1988. Characterization of a promonocyte clone chronically infected with HIV and inducible by 13-phorbol-12-myristate acetate. J. Immunol., 140: 1117-1122) and which produces large quantities of virus after stimulation by PMA (phorbol myristate acetate), was used. As a result, this cell line constitutes an excellent model to mimic the transition between the latency phase and the viral production phase observed in patients infected by HIV.
The results of this experiment are presented in FIG. 6 in which U1 cells (5×10^5) were treated with 50 nM of PMA in the absence (FIG. 6, lane 1) or in the presence of 2.5 μM of compounds C47, C97, C58, C57, C92, C91, C90, C83, C73, C34, C51, C45, C13, C10, C44, C6, C7, C41, C50, C32, C2, C1, C29, C35 and C99 (FIG. 6, lanes 3-27, respectively). After 24 h of treatment, the virus's transcripts were amplified by RT-PCR using specific VIH, BSS and SJ4.7A primers (Jacquenet et al., 2001, A second exon splicing silencer within human immunodeficiency virus type 1 tat exon 2 represses splicing of Tat mRNA and binds protein hnRNP. H. J. Biol. Chem. 276: 40464-75) and a radioactive tracer (α-32P) CTP.
Consider `COc1ccc2c(c1)c1c(C)c3c(NCCCN(C)C)nccc3c(C)c1n2C` [C1, N′-(9-methoxy-5,6,11-trimetyl-6H-pyrido[4,3-b]carbazol-1-yl)-N,N-dimethyl-propane-1,3-diamine], for which the “inhibition of HIV multiplication (amplification of viral transcripts)” value (shortened to “inhibition of HIV multiplication”) is “excellent inhibitors of HIV multiplication”.

For `C=CCNc1nccc2c(C)c3[nH]c4ccc(OC)cc4c3c(C)c12` [C10, allyl-(9-methoxy-5,11-dimethyl-6H-pyrido[4,3-b]carbazol-1-yl)-amine], the “inhibition of HIV multiplication” value is recorded as “excellent inhibitors of HIV multiplication”.

With `COc1ccc2[nH]c3c(C)c4ccnc(NCCCCCCNc5c6cc7c([nH]c8ccc(OC)cc87)c(C)c6cc[n+]5C)c4cc3c2c1.[I-]` [C13, 9-methoxy-1-[6-(9-methoxy-5-methyl-6H-pyrido[4,3-b]carbazol-1-ylamino)-hexylamino]-2,5-dimethyl-6H-pyrido[4,3-b]carbazol-2-ium iodide], the “inhibition of HIV multiplication” value is “excellent inhibitors of HIV multiplication”.

Consider `CCN(CC)CCNc1nccc2c(C)c3c(c(C)c12)c1cc(OC)ccc1n3C` [C29, N,N-diethyl-N′-(9-methoxy-5,6,11-trimethyl-6H-pyrido[4,3-b]carbazol-1-yl)-ethane-1,2-diamine], for which the “inhibition of HIV multiplication” value is reported as “excellent inhibitors of HIV multiplication”.

On to `Cc1c2ccnc(NCCCN(C)C)c2cc2c3cnccc3n(C)c12` [C32, N′-(5,6-dimethyl-5H-pyrido[3′4′:4,5]pyrrolo[2,3-g]isoquinolin-10-yl)-N,N-dimethyl-propane-1,3-diamine], for which the “inhibition of HIV multiplication” value was “excellent inhibitors of HIV multiplication”.

For the compound `CCN(CC)CCCNc1nccc2c(C)c3[nH]c4ccc(O)cc4c3cc12` [C35, 1-(3-diethylamino-propylamino)-5-methyl-6H-pyrido[4,3-b]carbazol-9-ol], the “inhibition of HIV multiplication” value is on record as “excellent inhibitors of HIV multiplication”.

Consider `CCN(CC)CCCNc1nccc2c(C)c3[nH]c4ccc(OC)cc4c3c(C)c12` [C41, N,N-diethyl-N′-(9-methoxy-5,11-dimethyl-6H-pyrido[4,3-b]carbazol-1-yl)-propane-1,3-diamine], for which the “inhibition of HIV multiplication” value is listed as “excellent inhibitors of HIV multiplication”.

Turning to `CCN(CC)CC(O)CNc1nccc2c(C)c3[nH]c4ccc(OC)cc4c3cc12` (stereo not shown) [C44, 1-diethylamino-3-(9-methoxy-5-methyl-6H-pyrido[4,3-b]carbazol-1-ylamino)-propan-2-ol], the “inhibition of HIV multiplication” value was “excellent inhibitors of HIV multiplication”.

Regarding `COc1ccc2c(ccc3c2[nH]c2c(C)cnc(NCCCCN)c23)c1` [C47, N-(3-methoxy-10-methyl-11H-benzo[g]pyrido[4,3-b]indol-7-yl)-butane-1,4-diamine], the “inhibition of HIV multiplication” value is reported as “excellent inhibitors of HIV multiplication”.

As for `CCN(CC)CCCNc1nccc2c(C)c3[nH]c4ccncc4c3cc12` [C51, N-N,diethyl-N′-(6-methyl-5H-pyrido[3′,4′:4,5]pyrrolo[2,3-g]isoquinolin-10-yl)-propane-1,3-diamine], the “inhibition of HIV multiplication” value is “excellent inhibitors of HIV multiplication”.

Regarding `COc1cccc2c1ccc1c2[nH]c2c(C)cnc(N)c21` [C83, 4-methoxy-10-methyl-11H-benzo[g]pyrido[4,3-b]indol-7-ylamine], the “inhibition of HIV multiplication” value is “excellent inhibitors of HIV multiplication”.

Regarding `COc1ccc2c(ccc3c2[nH]c2c(C)cnc(NCCCN)c23)c1` [C91, N-(3-methoxy-10-methyl-11H-benzo[g]pyrido[4,3-b]indol-7-yl)-propane-1,3-diamine], the “inhibition of HIV multiplication” value is on record as “excellent inhibitors of HIV multiplication”.

With `COc1ccc2c(ccc3[nH]c4c(C)cnc(NCCCN(C)C)c4c32)c1` [C92, N′-(3-methoxy-8-methyl-7H-benzo[e]pyrido[4,3-b]indol-11-yl)-N,N-dimethyl-propane-1,3-diamine], the “inhibition of HIV multiplication” value is listed as “excellent inhibitors of HIV multiplication”.

Consider `COc1ccc2c(ccc3c2[nH]c2c(C)cnc(NCCCN(C)CCCN)c23)c1` [C97, N-[3-(3-methoxy-10-methyl-11H-benzo[g]pyrido[4,3-b]indol-7-ylamino)-propyl]-N-methyl-propane-1,3-diamine], for which the “inhibition of HIV multiplication” value is “excellent inhibitors of HIV multiplication”.

For the compound `CCNCCCNc1nccc2c(C)c3c(cc12)c1cnccc1n3C` [C99, N-(5,6-dimethyl-5H-pyrido[3′4′:4,5]pyrrolo[2,3-g]isoquinolin-10-yl)-N′-ethyl-propane-1,3-diamine], the “inhibition of HIV multiplication” value is given as “excellent inhibitors of HIV multiplication”.
